Results: patent US20220193171A1, “PHARMACEUTICAL COMPOSITION COMPRISING MIXTURE EXTRACT OF COPTIS RHIZOME AND SCHIZONEPETA TENUIFOLIA AS ACTIVE INGREDIENT FOR PREVENTION OR TREATMENT OF INFLAMMATORY BOWEL DISEASE” (HELIXMITH CO., LTD, priority 2019, published 2022)

Tests used:
[1] = tested on: DSS-induced enteritis model; assay: Effects of single herbal extracts in DSS-induced enteritis model (Example 2); type: in vivo, mice (C57BL/6); settings: 5-ASA 25 mg/kg orally once/day for 14 days; 2.5% DSS 5 days
Experimental: After 8-week-old male mice (C57BL/6) were acclimated for one week or longer, the mice were classified into: a normal group; a DSS and distilled water administration group in which Dextran Sulfate Sodium (DSS; 36,000-50,000 MW, MP Biomedicals, USA) was administered to induce ulcerative colitis and then distilled water was administered (negative control); a DSS and 5-aminosalicylic acid (5-ASA; Tokyo Chemical Industry Co., Japan) administration group (positive control group); and groups in which DSS and respective single herbal extracts prepared in Example 1 were administered (experimental groups).
(§1) The DSS-induced enteritis model has been known to show similar morphological changes and symptoms to human ulcerative colitis. The mice were fed 100 mL of DSS diluted in drinking water to 2.5%, which was then changed every two days. After the induction by DSS for 5 days, drinking water was changed.
(§2) 5-ASA, used as a drug for the positive control group, was diluted in drinking water to 25 mg/kg, and administered orally once/day for 14 days from the start date of the experiment. Each single herbal extract was orally administered at a dose of 100 mg/kg once/day for 14 days from the start date of the experiment.
The mice of each group were weighed to calculate weight loss rates, and the feces state and the presence of bloody feces were checked, every day after the start of the experiment. Scoring was conducted for the three indicators according to the standards in Table 2 below.
Disease activity index (DAI), which is the sum calculated according to the scoring standards on Table 2 above, is shown in Table 3 below and FIG. 1.
On the last day of the experiment, the mice were sacrificed with carbon dioxide gas, and the colon site was excised. The colon length was measured from the excised colon, and then the state of the intestinal mucosa was investigated by incision in the longitudinal direction.
The histological colitis score was calculated by measuring the lengths of the mucosal ulcer site and the damaged mucosal layer in the colon tissue and averaging the values.

[2] = tested on: DNBS-induced enteritis model; assay: Effects of single herbal extracts on DNBS-induced enteritis model (Example 3); type: in vivo, mice (C57BL/6); settings: 5-ASA 25 mg/kg orally once/day for 5 days; DNBS rectal
Experimental: After 8-week-old male mice (C57BL/6) were acclimated for one week or longer, the mice were classified into: a normal group; a DNBS and distilled water administration group in which dinitrobenzene sulfonic acid (DNBS; Sigma-Aldrich, USA) was administered to induce inflammatory bowel disease and then distilled water was administered (negative control); a DNBS and 5-ASA administration group (positive control group); and groups in which DNBS and extracts of 11 kinds of herbs (Terminaliae Fructus, Selaginellae Herba, Schizonepeta tenuifolia Briquet, Geranii Herba, Psoraleae Semen, Thujae Orientalis Folium, Coptis Rhizome, Galla Rhois, Ailanthi Radicis Cortex, Puerariae Radix, and Liriopis Tuber) selected in Example 2 (experimental groups).
The DNBS-induced enteritis model is known to be closely related with human Crohn's disease in that T cell-mediated immune response is induced. DNBS in 50% ethanol/distilled water at 40 mg/mL was prepared, and 0.1 mL was slowly injected into the rectum of the mouse by using a catheter. 5-ASA, used as a drug for the positive control group, was diluted in drinking water to 25 mg/kg, and administered orally once/day for 5 days from the start date of the experiment. […]
On the last day of the experiment, the mice were sacrificed with carbon dioxide gas, and the colon site was excised, and the colon length was measured.

[3] = tested on: DSS-induced colitis mice; assay: Effects of single herbal extracts with different concentration in DSS-induced colitis mice (Example 4); type: in vivo, mice (C57BL/6); settings: 5-ASA 25 mg/kg orally; 2.5% DSS 6 days
Experimental: After 8-week-old male mice (C57BL/6) were acclimated for one week or longer, the mice were classified into: a normal group; a DSS and distilled water administration group (negative control); a DSS and 5-ASA administration group (positive control group); and groups in which DSS and extracts of four kinds of herbs (Coptis Rhizome, […] Herba, Schizonepeta tenuifolia Briquet, and […] Herba) selected in Example 1 (experimental groups). The mice were fed 100 mL of DSS diluted in drinking water to 2.5%, which was then changed every two days. To evaluate the effects of single herbal extracts with different concentrations, DSS was administered for a total of 6 days, and then drinking water was changed. 5-ASA was distilled in drinking water to 25 mg/kg and orally administered. Each single herbal extract was orally administered at doses of 10, 30, and 100 mg/kg once/day for 14 days from the start date of the experiment, and the body weight change, feces state, and the presence of bloody feces were checked every day. In addition, DAI scores were calculated based on the results of the body weight change, feces state, and the presence of bloody feces, and the results are shown in Table 9 below and FIG. 6.

[4] = tested on: DSS-induced colitis mice; assay: Comparison of single extracts and mixed extracts in DSS-induced colitis mice (Example 5); type: in vivo, mice (C57BL/6); settings: 5-ASA 25 mg/kg orally; 2.5% DSS 5 days
Experimental: After 8-week-old male mice (C57BL/6) were acclimated for one week or longer, the mice were classified into: a normal group; a DSS administration group, a DSS and distilled water administration group (negative control); a DSS and 5-ASA administration group (positive control group); and a group administered DSS and Coptis Rhizome 100 mg/kg, a group administered DSS and Schizonepeta tenuifolia Briquet 10 mg/kg, and a group administered DSS, Coptis Rhizome 100 mg/kg, and Schizonepeta tenuifolia Briquet 10 mg/kg (mixed extract administration group). The mice were fed 100 mL of DSS diluted in drinking water to 2.5%, which was then changed every two days. After DSS administration for 5 days, drinking water was changed. 5-ASA, used as a drug for the positive control group, was diluted in drinking water to 25 mg/kg, and orally administered. Coptis Rhizome 100 mg/kg, Schizonepeta tenuifolia Briquet 10 mg/kg, and a 10:1 mixture of Coptis Rhizome and Schizonepeta tenuifolia Briquet at a dose of 110 mg/kg were orally administered once/day for 14 days, and the body weight change rate, feces state, and the presence of bloody feces were checked every day.

[5] = tested on: TNF-α; assay: Quantitative PCR of TNF-α expression in colon of DSS-induced colitis mice (Example 6); type: in vivo, mouse; settings: relative value vs normal group, GAPDH standard; colon RNA; 5-ASA 25 mg/kg orally
Experimental: (§3) RNA was isolated from the colon of the mice collected in Example 5 by using TRIzol (Invitrogen, USA). Thereafter, quantitative PCR through primers specific to the inflammatory factors TNF-α, IL-1β, IL-17, IL-23, CCL2, and MIP-2, and SYBR green (Takara, Japan) was performed using cDNA obtained by performing RT-PCR. The expression levels of RNA obtained therefrom were expressed as a relative change compared with the untreated group (normal group) by using GAPDH mRNA as the standard gene. The experimental results are shown in Tables 11 to 16 below and FIGS. 8 to 13.

[6] = tested on: IL-1β; assay: Quantitative PCR of IL-1β expression in colon of DSS-induced colitis mice (Example 6); type: in vivo, mouse; settings: relative value vs normal group, GAPDH standard; colon RNA; 5-ASA 25 mg/kg orally
Experimental: as §3

[7] = tested on: IL-17; assay: Quantitative PCR of IL-17 expression in colon of DSS-induced colitis mice (Example 6); type: in vivo, mouse; settings: relative value vs normal group, GAPDH standard; colon RNA; 5-ASA 25 mg/kg orally
Experimental: as §3

[8] = tested on: IL-23; assay: Quantitative PCR of IL-23 expression in colon of DSS-induced colitis mice (Example 6); type: in vivo, mouse; settings: relative value vs normal group, GAPDH standard; colon RNA; 5-ASA 25 mg/kg orally
Experimental: as §3

[9] = tested on: MIP-2; assay: Quantitative PCR of MIP-2 expression in colon of DSS-induced colitis mice (Example 6); type: in vivo, mouse; settings: relative value vs normal group, GAPDH standard; colon RNA; 5-ASA 25 mg/kg orally
Experimental: as §3

[10] = tested on: CCL2; assay: Quantitative PCR of CCL2 expression in colon of DSS-induced colitis mice (Example 6); type: in vivo, mouse; settings: relative value vs normal group, GAPDH standard; colon RNA; 5-ASA 25 mg/kg orally
Experimental: as §3

[11] = tested on: DSS-induced enteritis model; assay: Effects of single and mixed herbal extracts on DSS-induced enteritis model (Example 11); type: in vivo, mice (C57BL/6); settings: 5-ASA 25 mg/kg orally once/day for 10 days; 2.5% DSS 5 days
Experimental: After 8-week-old male mice (C57BL/6) were acclimated for one week or longer, the mice were classified into: a normal group;
a DSS and distilled water administration group in which Dextran Sulfate Sodium (DSS; 36,000-50,000 MW, MP Biomedicals, USA) was administered to induce ulcerative colitis and then distilled water was administered (negative control); a DSS and 5-aminosalicylic acid (5-ASA; Tokyo Chemical Industry Co., Japan) administration group (positive control group); and groups in which together with DSS, Coptis Rhizome and Schizonepeta tenuifolia Briquet extracts prepared in Example 1 and mixed herbal extracts prepared in Example 7 were administered (experimental groups).
as §1
as §2, with “10” for “14”, “mixed” for “single”, “50” for “100”
The mice of each group were weighed to calculate weight loss rates every day after the start of the experiment.
In addition, DAI scores were calculated based on the results of the body weight change, feces state, and the presence of bloody feces, and the results are shown in Table 23 below and FIG. 17.
On the last day of the experiment, the mice were sacrificed with carbon dioxide gas, and the colon site was excised.

Nc1ccc(O)c(C(=O)O)c1 [Positive control, 5-aminosalicylic acid]
Colon length (cm) [1]: 5.6 cm
DAI score of Day 10 [1]: 2.4
Histological colitis score [1]: 1.00
Colon length (cm) [2]: 7.10 cm
Survival rate (%) [2]: 60%
Body weight change rate for 14 days (%) [3]: −19.38%
DAI score of Day 10 [3]: 4.8
DAI score of Day 10 [4]: 2.8
TNF-α expression level [5]: 2.16
IL-1β expression level [6]: 2.28
IL-17 expression level [7]: 1.77
IL-23 expression level [8]: 1.65
MIP-2 expression level [9]: 1.86
CCL2 expression level [10]: 3.26
Body weight change rate for 10 days (%) [11]: −11.66%
Colon length (cm) [11]: 7.04 cm
DAI score of DAY 10 [11]: 4.8
